Results from paper PMC7044277 (Nature Communications, 2020).
Several values for one entry are separate records, joined by “and”; a condition that tells them apart may be missing. Equal entries are not always repeated.

Assays:
Type in all cases: cell-based
[1] = biological target: T1, 320 non-olfactory GPCRs (Homo sapiens, UniProt P32248)
T1 construct: expressed in transfected cells; host or cells: HTLA cells

[2] = biological target: 320 non-olfactory GPCRs (Homo sapiens, UniProt P41143); conditions: receptor OPRD1; replicate values, Fig_4g
Sequence of 320 non-olfactory GPCRs (Homo sapiens, UniProt P41143) (P41143 whole entry): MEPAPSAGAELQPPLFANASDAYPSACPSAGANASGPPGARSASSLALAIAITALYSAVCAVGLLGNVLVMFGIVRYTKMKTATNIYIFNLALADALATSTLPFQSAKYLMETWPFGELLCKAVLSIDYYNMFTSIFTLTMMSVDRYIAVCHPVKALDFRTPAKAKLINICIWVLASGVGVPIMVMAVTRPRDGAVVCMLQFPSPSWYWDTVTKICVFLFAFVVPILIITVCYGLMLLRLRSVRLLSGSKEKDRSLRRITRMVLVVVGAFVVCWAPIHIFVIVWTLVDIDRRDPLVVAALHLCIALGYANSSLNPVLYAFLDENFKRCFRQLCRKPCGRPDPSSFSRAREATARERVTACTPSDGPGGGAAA

[3] = biological target: T2, 320 non-olfactory GPCRs (Homo sapiens, UniProt Q86SM5); conditions: receptor MRGPRG; replicate values, Fig_4g
T2 construct: expressed in transfected cells; host or cells: HTLA cells
T2 sequence (Q86SM5 whole entry): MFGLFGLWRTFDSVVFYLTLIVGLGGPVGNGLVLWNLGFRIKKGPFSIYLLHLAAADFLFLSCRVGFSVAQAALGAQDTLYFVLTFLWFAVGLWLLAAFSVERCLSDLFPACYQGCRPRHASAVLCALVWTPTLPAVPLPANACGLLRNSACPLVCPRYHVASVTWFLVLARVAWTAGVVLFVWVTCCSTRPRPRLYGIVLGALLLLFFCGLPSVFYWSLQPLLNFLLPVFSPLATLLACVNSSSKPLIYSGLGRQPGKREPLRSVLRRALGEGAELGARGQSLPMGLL

[4] = biological target: T3, 320 non-olfactory GPCRs (Homo sapiens, UniProt Q9BPV8); conditions: receptor P2RY13; replicate values, Fig_4g
T3 construct: expressed in transfected cells; host or cells: HTLA cells
T3 sequence (Q9BPV8 whole entry): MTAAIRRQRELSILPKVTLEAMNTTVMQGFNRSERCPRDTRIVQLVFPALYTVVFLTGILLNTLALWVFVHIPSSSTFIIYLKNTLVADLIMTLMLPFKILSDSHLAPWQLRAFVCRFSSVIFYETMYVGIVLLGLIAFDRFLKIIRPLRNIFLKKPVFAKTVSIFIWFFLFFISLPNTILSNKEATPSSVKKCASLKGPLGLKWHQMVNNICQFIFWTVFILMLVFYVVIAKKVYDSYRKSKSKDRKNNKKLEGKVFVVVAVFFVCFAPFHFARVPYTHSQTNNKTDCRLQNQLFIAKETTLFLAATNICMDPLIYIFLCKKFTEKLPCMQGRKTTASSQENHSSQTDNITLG
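For Fold of Basal in this document: compound tested at 1 µM final concentration.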
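For GPCRome agonism screen response in this document: fold over basal response of each receptor without drug.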

T1 sequence (P32248 25-378): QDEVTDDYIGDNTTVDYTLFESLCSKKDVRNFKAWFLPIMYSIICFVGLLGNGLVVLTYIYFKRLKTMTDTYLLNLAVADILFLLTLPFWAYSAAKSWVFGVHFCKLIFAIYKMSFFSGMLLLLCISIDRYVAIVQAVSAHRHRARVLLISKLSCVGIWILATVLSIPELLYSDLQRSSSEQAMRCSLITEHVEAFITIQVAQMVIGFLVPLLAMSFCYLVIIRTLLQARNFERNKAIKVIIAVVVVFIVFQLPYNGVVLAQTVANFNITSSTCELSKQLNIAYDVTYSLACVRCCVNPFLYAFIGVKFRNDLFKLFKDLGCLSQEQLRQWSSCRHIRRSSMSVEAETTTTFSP

CCOc1cccc2cc(C(C)NCC3(O)CCCCC3)oc12 (stereo not shown) [O4LE6]
Fold of Basal [1]: 1.25 and 0.8767 and 0.9045 and 1.727 | GPCRome agonism screen response [2]: 1.015 and 0.7396 and 0.6746 and 0.921 | GPCRome agonism screen response [3]: 0.767 and 0.7489 and 0.544 and 0.824 | GPCRome agonism screen response [4]: 0.7893 and 1.044 and 0.6466 and 2.085
